Results taken from PMC5407626 (PLoS ONE, 2017).

Columns and labels:
RBP4 = RBP4 (Homo sapiens, UniProt P02753); assay: Binding to RBP4; settings: data not shown
recombinant mouse BCO1 = target: T1, recombinant mouse BCO1 (Mus musculus, UniProt Q9JJS6); assay: In vitro inhibition of recombinant mouse BCO1 activity; assay type: biochemical; settings: inhibitor 0–200 μM
T1 construct: His-tag; made in house; host or cells: E. coli
T1 sequence (Q9JJS6 1-566): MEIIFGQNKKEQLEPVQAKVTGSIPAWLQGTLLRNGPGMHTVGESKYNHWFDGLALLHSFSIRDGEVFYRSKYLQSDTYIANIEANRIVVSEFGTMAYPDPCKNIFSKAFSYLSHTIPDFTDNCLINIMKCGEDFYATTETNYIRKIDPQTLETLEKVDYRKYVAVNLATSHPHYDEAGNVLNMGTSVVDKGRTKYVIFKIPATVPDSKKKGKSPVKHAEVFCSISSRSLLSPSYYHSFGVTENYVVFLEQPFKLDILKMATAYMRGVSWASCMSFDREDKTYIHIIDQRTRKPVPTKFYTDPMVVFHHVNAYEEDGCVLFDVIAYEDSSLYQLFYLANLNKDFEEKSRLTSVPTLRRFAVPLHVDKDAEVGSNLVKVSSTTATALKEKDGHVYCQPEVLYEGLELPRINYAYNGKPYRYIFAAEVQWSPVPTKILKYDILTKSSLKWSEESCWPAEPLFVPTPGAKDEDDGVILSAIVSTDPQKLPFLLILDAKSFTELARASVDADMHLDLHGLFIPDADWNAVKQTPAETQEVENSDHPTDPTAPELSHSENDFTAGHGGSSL
Text: Recombinant His-tag mouse BCO1 was produced in E.coli and purified using Talon CellThru (Clontech Labs, Inc., Mountain View, CA) resin as described previously. β-carotene was delivered in 1% octylthioglucoside. […] All other inhibitors were delivered in ethanol. […] The final concentration of ethanol in all samples was 1%. […] Data plotted as means±standard deviation; n = 3; […] Analysis was done in C57BL/6 wt (3 animals) and Bco1^-/- mice (13 animals).

RARβ [1] = target: T2, RARβ (Homo sapiens, UniProt P10826); assay: GeneBLAzer RAR-beta DA assay, antagonist mode (competition with at-RA); assay type: cell-based; settings: at-RA 0.5–1.5 nM; tested 10^−5 to 10^−9 M
T2 sequence (P10826 183-417 limits assumed): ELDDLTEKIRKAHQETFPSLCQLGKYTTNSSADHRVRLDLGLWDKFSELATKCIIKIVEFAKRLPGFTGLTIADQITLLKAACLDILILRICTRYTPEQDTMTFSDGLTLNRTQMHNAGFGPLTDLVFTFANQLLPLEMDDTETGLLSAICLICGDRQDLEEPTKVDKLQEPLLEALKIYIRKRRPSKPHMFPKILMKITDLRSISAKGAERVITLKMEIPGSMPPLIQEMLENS
Protocol: (§1) The potency of agonists and antagonists was measured by GeneBLAzer RAR-beta DA Assay Kit (ThermoFisher Scientific) according to the manufacturer’s recommendations.
The phenylretinamides may have the ability to modulate the expression of proteins and induce cell apoptosis via RAR-dependent and -independent pathways. […] Additionally, apoptosis of neuroblastoma cell lines was blocked by two retinoic acid receptor (RAR)-β/γ-specific antagonists, but not by a RARα-specific antagonist. […] However, in this case the specific RARα-specific antagonist AGN194301 could block fenretinde-induced apoptosis. […] Human retina-derived cells in culture show differences in expression of RAR receptors. […] Clonetics HRPE primary human cells specifically express only RARβ [50].
Fluorescence was measured at excitation (ex) 409 nm/emission (em) 460 and at ex 409nm/em 530 nm and the ratio was determined and plotted against a range of concentrations (10^−5 to 10^−9 M) of the tested compounds.

RARβ [2] = target: T2, RARβ; assay: GeneBLAzer RAR-beta DA assay, agonist mode; assay type: cell-based
Protocol: as §1
The phenylretinamides may have the ability to modulate the expression of proteins and induce cell apoptosis via RAR-dependent and -independent pathways. […] Human retina-derived cells in culture show differences in expression of RAR receptors. […] Clonetics HRPE primary human cells specifically express only RARβ [50].

RBP4 binding compared with MPR (RBP4): less potent inhibitor
effect on BCO1 activity (recombinant mouse BCO1): does not inhibit BCO1 activity
competition with all-trans-retinoic acid (RARβ [1]): cannot compete
EC50 (RARβ [2]): 4.4 µM
SMILES: CCOc1ccc(NC(=O)/C=C(C)/C=C/C=C(C)/C=C/C2=C(C)CCCC2(C)C)cc1 [EPR, N-[4-ethoxyphenyl]retinamide]
